Test results from paper PMC9266917, “New Peptide Functionalized Nanostructured Lipid Carriers with CNS Drugs and Evaluation Anti-proliferative Activity” (International Journal of Molecular Sciences, 2022).

Experiments:
[1] = preliminary solubility studies; drug added with stirring until saturation of the lipid; Compritol 888 ATO (melted, 80 °C), Transcutol HP and Miglyol (room temperature); n = 3
Method: Increasing amounts of TCP were successively added, with stirring, until saturation of the lipid was achieved. The saturation point occurred when the excess of solid TCP persisted for more than 8 h. Each determination was carried out in triplicate (n = 3).

SH-SY5Y cell line = experiment: Cell morphology visualization by microscope, SH-SY5Y; type: cell-based, human; settings: 24 h incubation, 1 µM
Method: (§1) After the treatments, cell morphology and growth were assessed by contrast phase microscope Lionheart FX (Biotech, USA) with use of Gen5 software (Biotech, USA) and a Leica DMI 6000B microscope equipped with a Leica DFC350 FX camera and then analyzed with the Leica LAS X imaging software (v3.7.4).

Caco-2 cell line [2] = experiment: MTT cell viability assay, Caco-2; type: cell-based; settings: Caco-2, 24 h incubation, free peptide or conjugate at 10 µM, n = 3 or 6
Method: The MTT assay was conducted to determine metabolic activity of cells and assess cellular viability. Cells were maintained in culture incubated with DMEM further supplemented with 10% of heat-inactivated fetal bovine serum (FBS) and 1% penicillin and streptomycin at 37 °C in a controlled atmosphere of 5% CO2 (according to the ATCC recommendations). Before the experiment, SH-SY5Y cells and Caco-2 cell line were seeded in sterile, flat-bottom 96-well plates at the density of 18,000 cells per well and 6000 cells per well, respectively, and incubated for 24 h. […] Then the cells were incubated for 24 h and both negative and positive control were included with incubation with culture media and sterilized water (5:1) and DMSO 10% to promote the cell lyses, respectively. After incubation, all media was aspirated and replaced with 100 μL of MTT solution (at 0.5 mg/mL). Then, cells were incubated for 3 h in the dark. […] The absorbance was measured at 570 nm in a microplate reader (Synergy HT, Biotech Instruments inc., Winoosk, USA and Tecan Infinite M200, Tecan group Ltd., Männedorf, Switzerland). All experiments were performed in triplicates and the relative cell viability (%) was compared to control cells and calculated using the following equation: Cell viability (% of sample)=Abs sample/Abs control×100

Caco-2 cell line [3] = experiment: Cell morphology visualization by microscope, Caco-2; type: cell-based; settings: Caco-2, 24 h incubation, 10 µM
Method: as §1

| Molecule | solubility in lipids [1] | cell viability and morphology by microscope visualization (SH-SY5Y cell line) | decrease of cell viability (Caco-2 cell line [2]) | cell viability and morphology by microscope visualization (Caco-2 cell line [3]) |
| --- | --- | --- | --- | --- |
| N[C@@H]1C[C@H]1c1ccccc1 (racemic) [TCP, (±)-trans-2-Phenylcyclopropylamine] | maximum solubility level in liquid lipid Transcutol HP | – | – | – |
| KLALKLALKALKAALKLA-NH2 [MAP, model amphipathic peptide, cell-penetrating peptide] | – | decreased substantial cell viability and showed some morphologic change with loss of normal cellular structure and round aspect | 20% | decrease of cell viability and substantial morphologic changes |
